Values of other authors in publication PMC6954965 (Neuropharmacology, 2019).

How the values were obtained:
[1] = molecular target: PICK1 PDZ domain; conditions: binds the PDZ domain of PICK1; ref Thorsen et al., 2010
[2] = tested on: Male Sprague-Dawley rats; conditions: administered directly into the nucleus accumbens shell; ref Schmidt et al., 2013
[3] = molecular target: PSD95 tandem PDZ domains; conditions: dimeric peptide inhibitor of PSD95 tandem PDZ domains; ref Bach et al., 2012

Row | Compound | Ki [1] [µM] | reinstatement of cocaine seeking [2] | Ki [3] [nM]
1 | CCOC(=O)NC(=O)/C(C#N)=C/c1ccc(Cl)c(Cl)c1 [FSC231] | 10.1 | sufficient to attenuate | 
2 | Tat-NPEG4(IEDTV)(2) |  |  | 4.6
